Patent US20250221413A1, “Use and Preparation Method of Sulfoxamyl, and Oxidation System” (priority 2023, published 2025)
“And” between values parts separate entries of the source, which are not always exact repeats. Identical values can stand only once. “Also recorded” adds a separate entry of the source.

Key:
SD rats = assay: Acute oral toxicity test, probability unit method (Bliss method), LD50 by Probit regression; format: in vivo; conditions: for Death count: 24 h
Description: (§1) Materials: the test agent 98% sulfoxamyl technical, batch number 20230708-1, was provided by Ningxia Hugerise Chemical Co., Ltd. Experimental animals: SPF-grade SD rats, half male and half female, weighing 180 g to 220 g, were provided by Jinan Pengyue Experimental Animal Breeding Co., Ltd., license number SCXK (Lu) 20190003. Rearing environment: the rats were housed in an SPF-grade animal room with free access to water and food, a temperature of 20° C. to 25° C., a humidity of 40% to 60%, and a 12 h/12 h light cycle. Feed: conventional pellet feed was provided by Jinan Pengyue Experimental Animal Breeding Co., Ltd.
(§2) The test was conducted in accordance with “Toxicological test methods of pesticides for registration, GB15670.5-2017”, “Acute toxicity test, GB15193.3-2003” and relevant acute toxicity research data.
(§3) Methods: a single oral fixed-dose procedure was conducted to preliminarily explore the toxic dose range of sulfoxamyl. LD50 and confidence limits were calculated by using the probability unit method (Bliss method). SD rats were randomly divided into 5 groups, 10 rats in each group, half of them were male and half were female. The dosages administered to each group were 474.61 mg/kg, 632.81 mg/kg, 843.75 mg/kg, 1,125 mg/kg, and 1,500 mg/kg. The common ratio value among each dose group was 0.75. After a single oral administration, the mortality rate of the experimental animals was recorded within 24 h and 14 days after administration, while the general condition of the animals was observed, and the food intake and body weight changes were recorded.
(§4) According to the above test dose, number of animals, number of deaths and other data, SPSS statistical software was used to calculate LD50 by Probit regression, and the results are shown in Table 3.

[1] = as above; format: in vivo, SD rats; conditions: both sexes, Sprague-Dawley, rat, in vivo, po; SD rats, Probit regression
Description: as §1, §2, §3, §4

[2] = Half-life test (hydrolysis in neutral distilled water, HPLC); format: physicochemical
From the text: A 98% sulfoxamyl sample was quantitatively dissolved in neutral distilled water, and samples were taken and injected at certain time intervals under HPLC detection. Data were collected according to the area normalization method based on the integrated sulfoxamyl peak area ratio.

CNC(=O)O/N=C(/C(=O)N(C)C)S(C)(=O)=O [Sulfoxamyl, N,N-dimethyl-2-[[[(methylamino)carbonyl]oxy]imino]-2-(methylsulfonyl)acetamide]
toxicity level (acute oral) (SD rats; GB15670-1995 classification): low toxic; also recorded: Low Toxicity
Probit Estimation for dose (SD rats; Probability 0.010): 379.474 mg/kg
Probit Estimation for log(dose) (SD rats; Probability 0.010): 2.579
Probit Estimation for dose (SD rats; Probability 0.020): 415.442 mg/kg
Probit Estimation for log(dose) (SD rats; Probability 0.020): 2.619
Probit Estimation for dose (SD rats; Probability 0.030): 440.010 mg/kg
Probit Estimation for log(dose) (SD rats; Probability 0.030): 2.643
Probit Estimation for dose (SD rats; Probability 0.040): 459.445 mg/kg
Probit Estimation for log(dose) (SD rats; Probability 0.040): 2.662
Probit Estimation for dose (SD rats; Probability 0.050): 475.885 mg/kg
Probit Estimation for log(dose) (SD rats; Probability 0.050): 2.678
Probit Estimation for dose (SD rats; Probability 0.060): 490.341 mg/kg
Probit Estimation for log(dose) (SD rats; Probability 0.060): 2.690
Probit Estimation for dose (SD rats; Probability 0.070): 503.377 mg/kg
Probit Estimation for log(dose) (SD rats; Probability 0.070): 2.702
Probit Estimation for dose (SD rats; Probability 0.080): 515.342 mg/kg
Probit Estimation for log(dose) (SD rats; Probability 0.080): 2.712
Probit Estimation for dose (SD rats; Probability 0.090): 526.471 mg/kg
Probit Estimation for log(dose) (SD rats; Probability 0.090): 2.721
Probit Estimation for dose (SD rats; Probability 0.100): 536.928 mg/kg
Probit Estimation for log(dose) (SD rats; Probability 0.100): 2.730
Probit Estimation for dose (SD rats; Probability 0.150): 582.478 mg/kg
Probit Estimation for log(dose) (SD rats; Probability 0.150): 2.765
Probit Estimation for dose (SD rats; Probability 0.200): 621.421 mg/kg
Probit Estimation for log(dose) (SD rats; Probability 0.200): 2.793
Probit Estimation for dose (SD rats; Probability 0.250): 656.898 mg/kg
Probit Estimation for log(dose) (SD rats; Probability 0.250): 2.817
Probit Estimation for dose (SD rats; Probability 0.300): 690.481 mg/kg
Probit Estimation for log(dose) (SD rats; Probability 0.300): 2.839
Probit Estimation for dose (SD rats; Probability 0.350): 723.131 mg/kg
Probit Estimation for log(dose) (SD rats; Probability 0.350): 2.859
Probit Estimation for dose (SD rats; Probability 0.400): 755.539 mg/kg
Probit Estimation for log(dose) (SD rats; Probability 0.400): 2.878
Probit Estimation for dose (SD rats; Probability 0.450): 788.276 mg/kg
Probit Estimation for log(dose) (SD rats; Probability 0.450): 2.897
Probit Estimation for dose (SD rats; Probability 0.500): 821.879 mg/kg
Probit Estimation for log(dose) (SD rats; Probability 0.500): 2.915
Probit Estimation for dose (SD rats; Probability 0.550): 856.914 mg/kg
Probit Estimation for log(dose) (SD rats; Probability 0.550): 2.933
Probit Estimation for dose (SD rats; Probability 0.600): 894.044 mg/kg
Probit Estimation for log(dose) (SD rats; Probability 0.600): 2.951
Probit Estimation for dose (SD rats; Probability 0.650): 934.112 mg/kg
Probit Estimation for log(dose) (SD rats; Probability 0.650): 2.970
Probit Estimation for dose (SD rats; Probability 0.700): 978.282 mg/kg
Probit Estimation for log(dose) (SD rats; Probability 0.700): 2.990
Probit Estimation for dose (SD rats; Probability 0.750): 1028.295 mg/kg
Probit Estimation for log(dose) (SD rats; Probability 0.750): 3.012
Probit Estimation for dose (SD rats; Probability 0.800): 1087.001 mg/kg
Probit Estimation for log(dose) (SD rats; Probability 0.800): 3.036
Probit Estimation for dose (SD rats; Probability 0.850): 1159.674 mg/kg
Probit Estimation for log(dose) (SD rats; Probability 0.850): 3.064
Probit Estimation for dose (SD rats; Probability 0.900): 1258.055 mg/kg
Probit Estimation for log(dose) (SD rats; Probability 0.900): 3.100
Main clinical symptom (SD rats; oral 474.61 mg/kg): Asymptomatic
Death count (SD rats; oral 474.61 mg/kg, 474.61 mg/kg): no experimental animals and 0/10
Main clinical symptom (SD rats; oral 632.81 mg/kg): Intense abdominal breathing,
Death count (SD rats; oral 632.81 mg/kg, 632.81 mg/kg): 3 and 3/10
Main clinical symptom (SD rats; oral 843.75 mg/kg): Intense abdominal breathing, malaise, drooling, tremors
Death count (SD rats; oral 843.75 mg/kg, 843.75 mg/kg): 6 and 6/10
Main clinical symptom (SD rats; oral 1125 mg/kg): Intense abdominal breathing, malaise, drooling, tremors
Death count (SD rats; oral 1125 mg/kg, 1125 mg/kg): 7 and 8/10
Main clinical symptom (SD rats; oral 1500 mg/kg): Intense abdominal breathing,
Death count (SD rats; oral 1500 mg/kg, 1500 mg/kg): all animals and 10/10
new deaths 14 days after administration compared to 24 h (SD rats; oral, all dose groups): no new deaths
LD50 at 14 days [1]: 822 mg/kg
time to complete decomposition ([2]; neutral conditions): about 8 h
Changes in ratio of sulfoxamyl peak area under HPLC ([2]; neutral distilled water, 25° C., Time 0 h): 99.86%
Changes in ratio of sulfoxamyl peak area under HPLC ([2]; neutral distilled water, 25° C., Time 0.5 h): 73%
Changes in ratio of sulfoxamyl peak area under HPLC ([2]; neutral distilled water, 25° C., Time 1 h): 63%
Changes in ratio of sulfoxamyl peak area under HPLC ([2]; neutral distilled water, 25° C., Time 2 h): 48%
Changes in ratio of sulfoxamyl peak area under HPLC ([2]; neutral distilled water, 25° C., Time 3 h): 32%
Changes in ratio of sulfoxamyl peak area under HPLC ([2]; neutral distilled water, 25° C., Time 4 h): 20%
Changes in ratio of sulfoxamyl peak area under HPLC ([2]; neutral distilled water, 25° C., Time 5 h): 11%
Changes in ratio of sulfoxamyl peak area under HPLC ([2]; neutral distilled water, 25° C., Time 6 h): 5%
Changes in ratio of sulfoxamyl peak area under HPLC ([2]; neutral distilled water, 25° C., Time 7 h): 4%
Changes in ratio of sulfoxamyl peak area under HPLC ([2]; neutral distilled water, 25° C., Time 8 h): 3%
half-life ([2]; neutral distilled water, neutral aqueous solution, 25° C.): 2 h
